Data: the kinase profiling compilation of Christmann-Franck et al. (2016)

Tests used:
Experiment in all cases: radiometric filter-binding kinase assay, Kinase HotSpot
Details in all cases: compound 0.5 µM; ATP 10 µM
[1] = target: FLT1 (human) (UniProt P17948)
[2] = target: DYRK2 (human) (UniProt Q92630)
[3] = target: CSNK1A1 (human) (UniProt P48729)
[4] = target: TGFBR1 (human) (UniProt P36897)
[5] = target: TGFBR2 (human) (UniProt P37173)
[6] = target: JAK2 JH1 JH2 (human) (UniProt O60674)
[7] = target: PKN1 (human) (UniProt Q16512)
PKN1 (human), sequence (Q16512 whole entry, looked up): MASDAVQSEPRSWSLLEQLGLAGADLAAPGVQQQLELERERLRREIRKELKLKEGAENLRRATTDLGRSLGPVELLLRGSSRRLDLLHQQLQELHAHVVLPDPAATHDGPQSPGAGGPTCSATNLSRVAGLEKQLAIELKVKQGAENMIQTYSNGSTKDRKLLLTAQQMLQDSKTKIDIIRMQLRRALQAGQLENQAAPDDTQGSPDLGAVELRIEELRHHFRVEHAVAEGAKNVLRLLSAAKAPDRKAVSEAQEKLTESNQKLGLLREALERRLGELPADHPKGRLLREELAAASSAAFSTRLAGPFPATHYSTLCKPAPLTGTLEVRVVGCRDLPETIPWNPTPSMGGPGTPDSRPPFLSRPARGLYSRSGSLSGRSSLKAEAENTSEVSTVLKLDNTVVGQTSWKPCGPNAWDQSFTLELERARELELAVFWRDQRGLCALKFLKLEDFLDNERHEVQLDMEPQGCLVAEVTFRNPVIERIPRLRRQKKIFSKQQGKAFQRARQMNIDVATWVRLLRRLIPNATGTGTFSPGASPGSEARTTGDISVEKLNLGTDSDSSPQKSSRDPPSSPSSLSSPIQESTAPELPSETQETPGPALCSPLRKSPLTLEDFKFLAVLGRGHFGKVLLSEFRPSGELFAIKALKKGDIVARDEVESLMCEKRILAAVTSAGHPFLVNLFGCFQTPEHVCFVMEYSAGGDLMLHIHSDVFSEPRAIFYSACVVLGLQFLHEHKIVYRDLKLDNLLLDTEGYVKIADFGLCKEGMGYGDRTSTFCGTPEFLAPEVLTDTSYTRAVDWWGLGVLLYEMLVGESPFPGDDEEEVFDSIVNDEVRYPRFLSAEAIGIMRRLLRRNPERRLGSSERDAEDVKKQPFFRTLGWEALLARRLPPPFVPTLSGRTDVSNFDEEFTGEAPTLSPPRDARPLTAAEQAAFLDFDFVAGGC

[8] = target: ADRBK2 (human) (UniProt P35626)
[9] = target: TBK1 (human) (UniProt Q9UHD2)
[10] = target: EPHA2 (human) (UniProt P29317)
EPHA2 (human), sequence (P29317 whole entry, looked up): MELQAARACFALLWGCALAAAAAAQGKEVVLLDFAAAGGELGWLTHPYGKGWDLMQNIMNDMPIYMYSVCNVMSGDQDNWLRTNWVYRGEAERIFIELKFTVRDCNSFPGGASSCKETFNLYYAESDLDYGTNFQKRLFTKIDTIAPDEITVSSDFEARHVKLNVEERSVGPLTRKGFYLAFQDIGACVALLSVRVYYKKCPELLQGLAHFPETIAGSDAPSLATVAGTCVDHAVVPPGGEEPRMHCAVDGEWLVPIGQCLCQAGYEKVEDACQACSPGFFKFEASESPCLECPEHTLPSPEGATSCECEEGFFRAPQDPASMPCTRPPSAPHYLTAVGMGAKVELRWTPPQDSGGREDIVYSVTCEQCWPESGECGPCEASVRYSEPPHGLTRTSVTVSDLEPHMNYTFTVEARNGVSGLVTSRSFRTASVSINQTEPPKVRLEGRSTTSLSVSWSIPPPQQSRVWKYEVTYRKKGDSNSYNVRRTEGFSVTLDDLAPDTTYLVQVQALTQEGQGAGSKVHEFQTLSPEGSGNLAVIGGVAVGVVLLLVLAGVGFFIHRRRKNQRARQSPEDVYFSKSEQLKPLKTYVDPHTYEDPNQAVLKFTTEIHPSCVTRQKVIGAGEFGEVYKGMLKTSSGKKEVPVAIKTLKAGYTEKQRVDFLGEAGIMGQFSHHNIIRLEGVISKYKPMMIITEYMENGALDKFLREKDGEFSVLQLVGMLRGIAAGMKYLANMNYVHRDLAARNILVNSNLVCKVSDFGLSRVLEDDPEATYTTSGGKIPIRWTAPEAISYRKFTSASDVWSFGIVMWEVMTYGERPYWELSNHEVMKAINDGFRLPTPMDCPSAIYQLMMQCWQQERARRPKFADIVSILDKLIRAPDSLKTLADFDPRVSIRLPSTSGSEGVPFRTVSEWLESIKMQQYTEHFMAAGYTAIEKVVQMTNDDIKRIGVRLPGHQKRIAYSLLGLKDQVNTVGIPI

[11] = target: NEK6 (human) (UniProt Q9HC98)
[12] = target: STK11 (human) (UniProt Q15831)
[13] = target: TAOK1 (human) (UniProt Q7L7X3)
[14] = target: NLK (human) (UniProt Q9UBE8)
[15] = target: DCLK2 (human) (UniProt Q8N568)
[16] = target: SYK (human) (UniProt P43405)
[17] = target: MYLK (human) (UniProt Q15746)
[18] = target: AKT3 (human) (UniProt Q9Y243)
[19] = target: STK16 (human) (UniProt O75716)
STK16 (human), sequence (O75716 whole entry, looked up): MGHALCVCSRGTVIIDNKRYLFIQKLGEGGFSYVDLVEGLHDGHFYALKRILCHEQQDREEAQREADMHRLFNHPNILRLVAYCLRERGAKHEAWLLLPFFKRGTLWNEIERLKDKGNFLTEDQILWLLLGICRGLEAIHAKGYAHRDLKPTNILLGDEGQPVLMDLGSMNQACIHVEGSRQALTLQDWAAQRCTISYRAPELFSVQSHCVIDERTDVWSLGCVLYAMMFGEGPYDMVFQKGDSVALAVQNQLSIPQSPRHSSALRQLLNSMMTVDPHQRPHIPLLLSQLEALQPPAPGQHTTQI

[20] = target: KDR (human) (UniProt P35968)
[21] = target: NTRK2 (human) (UniProt Q16620)
[22] = target: ERBB4 (human) (UniProt Q15303)
[23] = target: CDK9 CCNT1 (human) (UniProt P50750+O60563)
CDK9 CCNT1 (human), sequence (O60563 whole entry, looked up): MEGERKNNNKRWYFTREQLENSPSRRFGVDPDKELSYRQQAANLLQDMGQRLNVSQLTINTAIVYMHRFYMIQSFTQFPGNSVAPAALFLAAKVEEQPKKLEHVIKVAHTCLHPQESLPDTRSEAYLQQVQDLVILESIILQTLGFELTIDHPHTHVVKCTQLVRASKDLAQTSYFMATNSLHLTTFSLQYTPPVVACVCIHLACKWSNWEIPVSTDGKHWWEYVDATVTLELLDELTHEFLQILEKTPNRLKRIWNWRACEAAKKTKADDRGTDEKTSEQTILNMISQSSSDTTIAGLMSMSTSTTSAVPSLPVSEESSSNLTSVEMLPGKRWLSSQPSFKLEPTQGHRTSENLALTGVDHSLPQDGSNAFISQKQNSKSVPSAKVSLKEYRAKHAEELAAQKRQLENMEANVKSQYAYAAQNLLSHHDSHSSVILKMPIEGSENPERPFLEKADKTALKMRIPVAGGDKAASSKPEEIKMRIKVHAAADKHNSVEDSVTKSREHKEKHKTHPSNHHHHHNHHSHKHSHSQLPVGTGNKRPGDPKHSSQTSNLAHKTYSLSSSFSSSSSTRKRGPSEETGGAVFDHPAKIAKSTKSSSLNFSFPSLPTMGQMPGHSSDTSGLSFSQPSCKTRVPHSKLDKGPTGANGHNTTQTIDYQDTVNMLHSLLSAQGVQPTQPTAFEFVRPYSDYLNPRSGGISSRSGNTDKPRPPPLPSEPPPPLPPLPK
CDK9 CCNT1 (human), sequence (P50750 whole entry, looked up): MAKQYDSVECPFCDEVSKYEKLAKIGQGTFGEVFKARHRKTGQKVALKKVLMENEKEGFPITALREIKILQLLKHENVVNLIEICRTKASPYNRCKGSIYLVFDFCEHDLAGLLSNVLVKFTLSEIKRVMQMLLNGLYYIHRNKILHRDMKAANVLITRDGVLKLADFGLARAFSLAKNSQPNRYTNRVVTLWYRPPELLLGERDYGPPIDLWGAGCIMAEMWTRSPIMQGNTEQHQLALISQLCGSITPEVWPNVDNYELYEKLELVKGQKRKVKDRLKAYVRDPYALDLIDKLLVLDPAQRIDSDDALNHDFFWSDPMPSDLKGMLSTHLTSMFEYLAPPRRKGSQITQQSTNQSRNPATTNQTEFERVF

[24] = target: DYRK4 (human) (UniProt Q9NR20)
[25] = target: RET (human) (UniProt P07949)
[26] = target: FGFR2 (human) (UniProt P21802)
[27] = target: CAMK1 (human) (UniProt Q14012)
CAMK1 (human), sequence (Q14012 whole entry, looked up): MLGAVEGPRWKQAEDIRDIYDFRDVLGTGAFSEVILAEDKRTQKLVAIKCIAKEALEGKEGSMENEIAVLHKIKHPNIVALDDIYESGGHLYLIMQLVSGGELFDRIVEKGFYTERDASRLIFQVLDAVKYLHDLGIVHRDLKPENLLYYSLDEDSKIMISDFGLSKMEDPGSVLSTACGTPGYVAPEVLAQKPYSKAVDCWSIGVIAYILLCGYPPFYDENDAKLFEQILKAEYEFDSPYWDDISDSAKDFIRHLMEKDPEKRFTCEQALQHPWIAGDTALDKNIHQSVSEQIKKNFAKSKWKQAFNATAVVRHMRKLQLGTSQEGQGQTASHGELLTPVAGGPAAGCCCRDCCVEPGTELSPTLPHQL

[28] = target: IRAK4 (human) (UniProt Q9NWZ3)
[29] = target: MAPK9 (human) (UniProt P45984)
MAPK9 (human), sequence (P45984 whole entry, looked up): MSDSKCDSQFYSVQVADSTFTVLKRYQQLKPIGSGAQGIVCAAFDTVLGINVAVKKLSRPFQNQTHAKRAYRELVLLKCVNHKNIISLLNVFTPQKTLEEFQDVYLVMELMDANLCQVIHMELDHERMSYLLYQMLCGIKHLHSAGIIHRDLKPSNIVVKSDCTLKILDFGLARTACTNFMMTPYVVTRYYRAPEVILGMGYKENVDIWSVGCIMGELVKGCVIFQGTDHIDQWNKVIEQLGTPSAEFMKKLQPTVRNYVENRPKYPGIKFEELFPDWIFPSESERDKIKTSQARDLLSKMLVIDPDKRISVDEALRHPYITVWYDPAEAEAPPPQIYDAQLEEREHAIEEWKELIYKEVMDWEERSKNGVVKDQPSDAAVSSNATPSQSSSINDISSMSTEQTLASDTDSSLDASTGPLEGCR

[30] = target: RIPK2 (human) (UniProt O43353)
[31] = target: ADRBK1 (human) (UniProt P25098)
[32] = target: CHEK1 (human) (UniProt O14757)
CHEK1 (human), sequence (O14757 whole entry, looked up): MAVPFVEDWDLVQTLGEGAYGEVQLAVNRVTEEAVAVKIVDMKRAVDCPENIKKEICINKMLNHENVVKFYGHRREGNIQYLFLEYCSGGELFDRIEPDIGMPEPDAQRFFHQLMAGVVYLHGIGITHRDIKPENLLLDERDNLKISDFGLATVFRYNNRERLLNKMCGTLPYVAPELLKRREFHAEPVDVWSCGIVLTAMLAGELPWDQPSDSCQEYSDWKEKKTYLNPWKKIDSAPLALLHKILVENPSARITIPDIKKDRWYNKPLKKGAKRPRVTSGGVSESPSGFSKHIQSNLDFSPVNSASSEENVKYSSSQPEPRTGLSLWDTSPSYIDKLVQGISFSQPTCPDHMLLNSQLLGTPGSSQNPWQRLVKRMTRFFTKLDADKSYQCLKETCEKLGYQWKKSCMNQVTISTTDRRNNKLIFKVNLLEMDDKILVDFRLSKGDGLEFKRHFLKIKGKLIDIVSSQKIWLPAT

[33] = target: CDK7 CCNH MNAT1 (human) (UniProt P50613+P51948+P51946)
[34] = target: MAPK13 (human) (UniProt O15264)
MAPK13 (human), sequence (O15264 whole entry, looked up): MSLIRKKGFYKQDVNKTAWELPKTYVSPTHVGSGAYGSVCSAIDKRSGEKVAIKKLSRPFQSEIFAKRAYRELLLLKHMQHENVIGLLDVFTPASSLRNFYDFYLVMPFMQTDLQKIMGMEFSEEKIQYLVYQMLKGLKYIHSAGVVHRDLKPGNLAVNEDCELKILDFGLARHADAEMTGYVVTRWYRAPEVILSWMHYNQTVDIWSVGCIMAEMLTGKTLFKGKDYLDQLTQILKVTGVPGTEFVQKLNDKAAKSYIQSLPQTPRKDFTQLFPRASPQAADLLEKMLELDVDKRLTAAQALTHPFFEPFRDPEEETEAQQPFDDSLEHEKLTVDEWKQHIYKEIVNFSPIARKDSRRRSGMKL

[35] = target: FES (human) (UniProt P07332)
[36] = target: CLK2 (human) (UniProt P49760)
[37] = target: MLTK (human) (UniProt Q9NYL2)
[38] = target: PASK (human) (UniProt Q96RG2)
[39] = target: CAMK1G (human) (UniProt Q96NX5)
[40] = target: MAPK3 (human) (UniProt P27361)
[41] = target: BLK (human) (UniProt P51451)
[42] = target: DYRK1B (human) (UniProt Q9Y463)

O=C1Cc2c([nH]c3ccc(Br)cc23)-c2ccccc2N1
residual activity [1]: 78.9%
residual activity [2]: 107%
residual activity [3]: 95.1%
residual activity [4]: 97.7%
residual activity [5]: 74.2%
residual activity [6]: 102%
residual activity [7]: 101%
residual activity [8]: 109%
residual activity [9]: 93%
residual activity [10]: 98.3%
residual activity [11]: 100%
residual activity [12]: 95.7%
residual activity [13]: 99.4%
residual activity [14]: 98.7%
residual activity [15]: 94.6%
residual activity [16]: 81.5%
residual activity [17]: 96.3%
residual activity [18]: 105%
residual activity [19]: 98.9%
residual activity [20]: 98.1%
residual activity [21]: 95%
residual activity [22]: 101%
residual activity [23]: 31.3%
residual activity [24]: 97.2%
residual activity [25]: 102%
residual activity [26]: 100%
residual activity [27]: 106%
residual activity [28]: 88.3%
residual activity [29]: 93.8%
residual activity [30]: 75.9%
residual activity [31]: 103%
residual activity [32]: 89%
residual activity [33]: 95.1%
residual activity [34]: 103%
residual activity [35]: 87.8%
residual activity [36]: 95.7%
residual activity [37]: 88.5%
residual activity [38]: 98%
residual activity [39]: 97.4%
residual activity [40]: 100%

Nc1nccc(-c2c(-c3ccc(F)cc3)ncn2C2CCNCC2)n1
residual activity [1]: 89.3%
residual activity [2]: 95.9%
residual activity [3]: 2.82%
residual activity [4]: 102%
residual activity [5]: 119%
residual activity [6]: 99.6%
residual activity [7]: 96.3%
residual activity [8]: 97.6%
residual activity [9]: 102%
residual activity [10]: 102%
residual activity [11]: 104%
residual activity [12]: 89.1%
residual activity [13]: 92.7%
residual activity [14]: 12.1%
residual activity [41]: 102%
residual activity [42]: 100%
residual activity [15]: 99.9%
residual activity [16]: 98%
residual activity [17]: 99.8%
residual activity [18]: 92.6%
residual activity [19]: 108%
residual activity [20]: 102%
residual activity [21]: 103%
residual activity [22]: 86.8%
residual activity [23]: 87.1%
residual activity [24]: 99.3%
residual activity [25]: 89.4%
residual activity [26]: 104%
residual activity [27]: 107%
residual activity [28]: 123%
residual activity [30]: 77.2%
residual activity [31]: 99.7%
residual activity [32]: 99.8%
residual activity [33]: 98.9%
residual activity [35]: 103%
residual activity [36]: 99.7%
residual activity [37]: 98%
residual activity [38]: 98.5%
residual activity [39]: 99.3%
residual activity [40]: 100%

Cn1sc(=O)n(Cc2ccccc2)c1=O
residual activity [1]: 96.1%
residual activity [2]: 104%
residual activity [3]: 99.5%
residual activity [4]: 97.2%
residual activity [5]: 123%
residual activity [6]: 91.6%
residual activity [7]: 98.5%
residual activity [8]: 99.6%
residual activity [9]: 102%
residual activity [10]: 96.5%
residual activity [11]: 102%
residual activity [12]: 106%
residual activity [13]: 88.9%
residual activity [14]: 105%
residual activity [41]: 101%
residual activity [42]: 103%
residual activity [15]: 98.5%
residual activity [16]: 92.2%
residual activity [17]: 94.5%
residual activity [18]: 96.6%
residual activity [19]: 105%
residual activity [20]: 89.4%
residual activity [22]: 104%
residual activity [23]: 94.2%
residual activity [24]: 99.3%
residual activity [25]: 106%
residual activity [27]: 100%
residual activity [28]: 107%
residual activity [30]: 85.4%
residual activity [31]: 96.7%
residual activity [32]: 103%
residual activity [33]: 96.8%
residual activity [34]: 97.5%
residual activity [35]: 101%
residual activity [36]: 98.5%
residual activity [37]: 100%
residual activity [38]: 101%
residual activity [39]: 117%
residual activity [40]: 90.4%

CCn1cnc2c(Nc3cccc(Cl)c3)nc(N[C@@H]3CCCC[C@@H]3N)nc21
residual activity [1]: 92.8%
residual activity [2]: 107%
residual activity [3]: 98.7%
residual activity [4]: 95.6%
residual activity [5]: 91.2%
residual activity [6]: 104%
residual activity [7]: 69.9%
residual activity [8]: 89.2%
residual activity [9]: 92.8%
residual activity [10]: 86.7%
residual activity [11]: 102%
residual activity [12]: 78%
residual activity [13]: 90.2%
residual activity [14]: 90.8%
residual activity [41]: 87.1%
residual activity [42]: 94.4%
residual activity [15]: 93.1%
residual activity [16]: 98.4%
residual activity [17]: 91%
residual activity [18]: 95.8%
residual activity [19]: 101%
residual activity [20]: 96.5%
residual activity [21]: 55.3%
residual activity [22]: 103%
residual activity [23]: 53.7%
residual activity [24]: 95.1%
residual activity [25]: 69.3%
residual activity [27]: 103%
residual activity [28]: 94.8%
residual activity [29]: 102%
residual activity [30]: 70%
residual activity [31]: 96.5%
residual activity [32]: 85.8%
residual activity [33]: 58.4%
residual activity [34]: 102%
residual activity [35]: 83.5%
residual activity [36]: 26.6%
residual activity [37]: 104%
residual activity [38]: 88%
residual activity [39]: 94.1%
residual activity [40]: 108%

COc1ccc(CNC(=O)Nc2ncc([N+](=O)[O-])s2)cc1
residual activity [1]: 96.8%
residual activity [2]: 103%
residual activity [3]: 92.4%
residual activity [4]: 95.8%
residual activity [5]: 117%
residual activity [6]: 104%
residual activity [7]: 94.3%
residual activity [8]: 112%
residual activity [9]: 104%
residual activity [10]: 100%
residual activity [11]: 100%
residual activity [12]: 100%
residual activity [13]: 101%
residual activity [14]: 102%
residual activity [42]: 99.4%
residual activity [15]: 99.2%
residual activity [16]: 98.6%
residual activity [17]: 94.1%
residual activity [18]: 95.9%
residual activity [19]: 99.9%
residual activity [20]: 85.7%
residual activity [21]: 85.6%
residual activity [22]: 95.2%
residual activity [23]: 88.1%
residual activity [24]: 97.7%
residual activity [25]: 97.9%
residual activity [26]: 97.4%
residual activity [27]: 101%
residual activity [28]: 101%
residual activity [29]: 135%
residual activity [30]: 82.8%
residual activity [31]: 96.4%
residual activity [32]: 98%
residual activity [33]: 94.8%
residual activity [34]: 91.1%
residual activity [35]: 97.7%
residual activity [36]: 97.4%
residual activity [37]: 101%
residual activity [38]: 106%
residual activity [39]: 99.6%
residual activity [40]: 103%
